Laboratory results taken from patent US20230094176A1, “COMPOUNDS AND METHODS FOR IMPROVING IMPAIRED ENDOGENOUS FIBRINOLYSIS USING HISTONE DEACETYLASE INHIBITORS” (Cereno Scientific AB, priority 2011, published 2023).

Key:
[1] = tested on: TNF-alpha suppressed t-PA production in HUVECs; assay: Counter-acting TNF-alpha (0.1 ng/ml) suppression of t-PA in HUVEC; assay type: cell-based, human; conditions: for concentration completely normalizing TNF-alpha suppressed t-PA production / concentration partly reversing TNF-alpha suppression of t-PA production: TNF-alpha 0.1 ng/ml 48 h, compound last 24 h
Experimental: Human umbilical vein endothelial cells (HUVECs) were prepared and cultured as described in Example 1. Confluent HUVECs were exposed to low concentrations of TNF-alpha (0.1 ng/ml) (Sigma-Aldrich) for 24 h. Thereafter, medium was replaced by fresh EGM-2 containing TNF-alpha and low concentrations of belinostat (10 nM to 300 nM) and incubated for 24 h. After 24 h, cells and conditioned media were harvested. Total RNA was prepared and RNA and secreted protein quantified as in Example 1.
We have previously shown that proinflammatory cytokines e.g. TNF-alpha and IL-1b suppress t-PA production in endothelial cells. We then investigated if VPA could reverse a TNF-alpha suppressed t-PA response. Human umbilical vein endothelial cells (HUVECs) were prepared by collagenase treatment of fresh umbilical cords (Jaffe, E. A., et al. J Clin Invest 52, 2745-2756 (1973)) obtained from the maternity ward of the Sahlgrenska University hospital, Gothenburg, Sweden. Cells were cultured in EGM-2 medium (Lonza, Basel, Switzerland) and all experiments were performed in passage 1 of subcultivation. Confluent HUVECs were pre-treated with 0.1 ng/ml human recombinant TNF-alpha (Sigma-Aldrich) for 24 hours then exposed to optimal concentrations VPA in complete medium. After incubation with the VPA and TNF-alpha for an additional 24 hours, cells and conditioned media were harvested.
Total RNA was prepared using RNeasy Mini RNA kit (Qiagen, Hilden, Germany) and genomic DNA was removed using RNase-free DNase I set (Qiagen). Levels of t-PA mRNA were analyzed with real-time RT-PCR, performed on an Applied Biosystems 7500 Fast Real-Time PCR System using cDNA and Taqman reagents obtained from Applied Biosystems (Foster City, Calif., USA). Hypoxanthine phosphoribosyl transferase (HPRT, Assay number Hs99999909_m1, Applied Biosystems) was used as endogenous internal standard.
Endothelial cells in culture are known to constitutively secrete the majority of synthesized t-PA making conditioned media a suitable source for quantification of t-PA protein. Conditioned medium from cell cultures was collected, centrifuged (10,000×g, 10 min, 4° C.) to remove cell debris, transferred to fresh tubes and stored at −70° C. Concentrations of t-PA antigen in conditioned media were determined using the commercially available TriniLize t-PA antigen ELISA (Trinity Biotech, Bray, Ireland) according to the manufacturer's protocol.

[2] = tested on: patients with a recent major atherothrombotic cardiovascular event; assay: Clinical outcome study in high-risk patients for prevention of recurrent events; assay type: in vivo, human; conditions: for annual absolute event rate lowered to: annual risk estimated approximately 7%
Experimental: The first clinical outcome study is performed in high-risk patients who have experienced a recent major atherothrombotic cardiovascular event (myocardial infarction or ischemic stroke) to investigate the preventive effect of Vorinostat treatment on the risk for recurrent events. The annual risk for a recurrent atherothrombotic event in the investigated population is estimated to approximately 7%. Patients are randomized in a parallel study design to receive double-blind oral treatment with 10 mg Vorinostat or placebo daily, in addition to optimal conventional treatment. The event rate is monitored by Kaplan-Meyer statistics. The primary efficacy endpoint is the composite measure of either mortality, or non-fatal myocardial infarction or ischemic stroke. The study is event-driven to a total of 180 events in the placebo group.
The first clinical outcome study is performed in high-risk patients who have experienced a recent major atherothrombotic cardiovascular event (myocardial infarction or ischemic stroke) to investigate the preventive effect of VPA treatment on the risk for recurrent events. Signs of a low-grade inflammatory condition is an inclusion criterion, defined as an elevated serum level of high-sensitivity C-reactive protein (hs-CRP) >3 mg/L. The annual risk for a recurrent atherothrombotic event in the investigated population is estimated to approximately 7%. Patients are randomized in a parallel study design to receive double-blind oral treatment with 100 mg valproic acid or placebo twice daily, in addition to optimal conventional treatment. The event rate is monitored by Kaplan-Meyer statistics. The primary efficacy endpoint is the composite measure of either mortality, or non-fatal myocardial infarction or ischemic stroke. The study is event-driven to a total of 180 events in the placebo group. […] Thus, this study confirms the clinical efficacy and feasibility of using VPA for secondary prevention of cardiovascular events.

[3] = tested on: high-risk patients with recent deep vein thrombosis or pulmonary embolus; assay: Clinical outcome study for prevention of recurrent venous thromboembolic events; assay type: in vivo, human
Experimental: This study is performed in high-risk patients who have experienced a recent deep vein thrombosis or circulatory stable pulmonary embolus to investigate the preventive effect of Vorinostat treatment on the risk for recurrent venous thrombotic events. Patients with a cancer diagnosis who presents with a first episode of a proximal deep venous thrombosis without unstable pulmonary embolism will be included. The patients will receive conventional treatment (i.e warfarin for 3-6 months) and thereafter included in the study. Patients are randomized in a parallel study design to receive double-blind oral treatment with 10 mg Vorinostat or placebo daily, in addition to optimal conventional treatment. The event rate is monitored by Kaplan-Meyer statistics. The primary efficacy endpoint is the composite measure of either mortality, or recurrent deep venous thrombosis or pulmonary embolism. The study is event-driven to a total of 180 events in the placebo group. […] Thus, this study confirms the clinical efficacy and feasibility of using Vorinostat for secondary prevention of venous thromboembolism.
This study is performed in high-risk patients who have experienced a recent deep vein thrombosis or circulatory stable pulmonary embolus to investigate the preventive effect of VPA treatment on the risk for recurrent venous thrombotic events. Patients with a cancer diagnosis and low grade inflammation who present with a first episode of a proximal deep venous thrombosis without unstable pulmonary embolism are included. The patients receive conventional treatment (i.e warfarin for 3-6 months) and thereafter are included in the study. Patients are randomized in a parallel study design to receive double-blind oral treatment with 100 mg valproic acid or placebo twice daily, in addition to optimal conventional treatment. The event rate is monitored by Kaplan-Meyer statistics. The primary efficacy endpoint is the composite measure of either mortality, or recurrent deep venous thrombosis or pulmonary embolism. The study is event-driven to a total of 180 events in the placebo group. […] Thus, this study confirms the clinical efficacy and feasibility of using VPA for secondary prevention of venous thromboembolism.

[4] = doses as for risk reduction (Vorinostat 10 mg, Belinostat 65 mg, Givinostat 2 mg, Panobinostat 0.5 mg, PCI-24781 2 mg, JNJ-26481585 0.2 mg, Mocetinostat 2 mg, SB939 0.4 mg, CXD101 10 mg daily)
[5] = long-term, daily oral dose: Vorinostat 10 mg, Belinostat 65 mg, Givinostat 2 mg, Panobinostat 0.5 mg, PCI-24781 2 mg, JNJ-26481585 0.2 mg, Mocetinostat 2 mg, SB939 0.4 mg, CXD101 10 mg
[6] = daily oral dose: Vorinostat 10 mg, Givinostat 2 mg, Panobinostat 0.5 mg, PCI-24781 2 mg, JNJ-26481585 0.2 mg, Mocetinostat 2 mg, SB939 0.4 mg, CXD101 10 mg, Belinostat example prints 10 mg Vorinostat
[7] = hs-CRP >3 mg/L, 100 mg valproic acid orally twice daily
[8] = HUVEC, present-tense Examples 12-18

| Compound | concentration completely normalizing TNF-alpha suppressed t-PA production ([1]; HUVEC) | concentration partly reversing TNF-alpha suppression of t-PA production ([1]; HUVEC) | concentrations needed to off-set the inhibition of TNF-alpha on t-PA expression ([1]; TNF-alpha treated endothelium) | annual absolute event rate lowered to [2, 4] | reduction of risk for recurrent atherothrombotic events, in addition to conventional therapy [2, 5] | reduction of risk for recurrent venous thrombotic events, in addition to conventional therapy [3, 6] | concentration achieving complete normalization of TNF-alpha suppressed t-PA mRNA ([1]; HUVEC, TNF-alpha 0.1 ng/ml, VPA additional 24 h) | concentrations needed to reverse the effect of TNF-alpha on t-PA expression ([1]; TNF-suppressed cells) | reduction of risk for recurrent atherothrombotic events, in addition to conventional therapy [2, 7] | annual absolute event rate lowered to [2, 7] | reduction of risk for recurrent venous thrombotic events, in addition to conventional therapy ([3]; cancer diagnosis and low grade inflammation, 100 mg valproic acid orally twice daily) | concentration completely normalizing TNF-alpha suppressed t-PA production [1, 8] | concentration partly reversing TNF-alpha suppression of t-PA production [1, 8] |
| --- | --- | --- | --- | --- | --- | --- | --- | --- | --- | --- | --- | --- | --- |
| O=C(/C=C/c1cccc(S(=O)(=O)Nc2ccccc2)c1)NO [Belinostat] | 200 nM | 50 nM | 0.05 to 0.2 µM | approximately 5% | approximately 30% | approximately 30% | – | – | – | – | – | – | – |
| CCCC(CCC)C(=O)O [VPA, valproic acid] | – | – | – | – | – | – | 0.35 mM | below 0.35 mM | approximately 30% | approximately 5% | approximately 30% | – | – |
| Cn1cc(CNCC2CCN(c3ncc(C(=O)NO)cn3)CC2)c2ccccc21 [JNJ-26481585, N-hydroxy-2-(4-((((1-methyl-1H-indol-3-yl)methyl)amino)methyl)piperidin-1-yl)pyrimidine-5-carboxamide] | – | – | – | approximately 5% | approximately 30% | approximately 30% | – | – | – | – | – | 5 nM | 1 nM |
| CCN(CC)Cc1ccc2cc(COC(=O)Nc3ccc(C(=O)NO)cc3)ccc2c1.Cl [Givinostat] | – | – | – | approximately 5% | approximately 30% | approximately 30% | – | – | – | – | – | 100 nM | 30 nM |
| O=C(CCCCCCC(=O)Nc1ccccc1)NO [Vorinostat] | 300 nM | 50 nM | – | approximately 5% | approximately 30% | approximately 30% | – | – | – | – | – | – | – |
| CN(C)Cc1c(C(=O)NCCOc2ccc(C(=O)NO)cc2)oc2ccccc12 [PCI-24781, 3-(dimethylaminomethyl)-N-[2-[4-(hydroxycarbamoyl)phenoxy]ethyl]-1-benzofuran-2-carboxamide] | – | – | – | approximately 5% | approximately 30% | approximately 30% | – | – | – | – | – | 200 nM | 10 nM |
| Nc1ccccc1NC(=O)c1ccc(CNc2nccc(-c3cccnc3)n2)cc1 [Mocetinostat] | – | – | – | approximately 5% | approximately 30% | approximately 30% | – | – | – | – | – | 300 nM | 10 nM |
| Cc1nn(C)cc1CN1CCC(c2ccc(C(=O)Nc3ccccc3N)cc2)CC1 [CXD101] | – | – | – | approximately 5% | approximately 30% | approximately 30% | – | – | – | – | – | 300 nM | 10 nM |
